Data from BindingDB's records for doi:10.1021/ja0727520 (University of California Berkeley, 2007).

Legend:
Assay in all cases: Determination of Inhibitor Ki
Settings in all cases: pH 7.4; 22 °C
[1] = molecular target: T1, TYR_PHOSPHATASE_2 domain-containing protein (Mycobacterium tuberculosis (strain CDC 1551 / Oshkosh), UniProt P96830)
T1 sequence (P96830 whole entry): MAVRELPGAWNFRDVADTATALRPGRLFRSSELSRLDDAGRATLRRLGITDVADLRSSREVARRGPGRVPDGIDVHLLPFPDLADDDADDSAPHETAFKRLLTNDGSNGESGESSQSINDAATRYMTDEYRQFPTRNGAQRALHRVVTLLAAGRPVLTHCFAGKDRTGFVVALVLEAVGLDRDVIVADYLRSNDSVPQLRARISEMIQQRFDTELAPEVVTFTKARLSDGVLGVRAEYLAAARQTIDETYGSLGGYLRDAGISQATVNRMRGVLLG
From the text: (§1) The initial rate data collected was used for determination of Ki values. For Ki determination, the kinetic values were obtained directly from nonlinear regression of substrate-velocity curves in the presence of various concentrations of inhibitor.

[2] = molecular target: Receptor-type tyrosine-protein phosphatase F (Homo sapiens, UniProt P10586)
Receptor-type tyrosine-protein phosphatase F, sequence (P10586 whole entry): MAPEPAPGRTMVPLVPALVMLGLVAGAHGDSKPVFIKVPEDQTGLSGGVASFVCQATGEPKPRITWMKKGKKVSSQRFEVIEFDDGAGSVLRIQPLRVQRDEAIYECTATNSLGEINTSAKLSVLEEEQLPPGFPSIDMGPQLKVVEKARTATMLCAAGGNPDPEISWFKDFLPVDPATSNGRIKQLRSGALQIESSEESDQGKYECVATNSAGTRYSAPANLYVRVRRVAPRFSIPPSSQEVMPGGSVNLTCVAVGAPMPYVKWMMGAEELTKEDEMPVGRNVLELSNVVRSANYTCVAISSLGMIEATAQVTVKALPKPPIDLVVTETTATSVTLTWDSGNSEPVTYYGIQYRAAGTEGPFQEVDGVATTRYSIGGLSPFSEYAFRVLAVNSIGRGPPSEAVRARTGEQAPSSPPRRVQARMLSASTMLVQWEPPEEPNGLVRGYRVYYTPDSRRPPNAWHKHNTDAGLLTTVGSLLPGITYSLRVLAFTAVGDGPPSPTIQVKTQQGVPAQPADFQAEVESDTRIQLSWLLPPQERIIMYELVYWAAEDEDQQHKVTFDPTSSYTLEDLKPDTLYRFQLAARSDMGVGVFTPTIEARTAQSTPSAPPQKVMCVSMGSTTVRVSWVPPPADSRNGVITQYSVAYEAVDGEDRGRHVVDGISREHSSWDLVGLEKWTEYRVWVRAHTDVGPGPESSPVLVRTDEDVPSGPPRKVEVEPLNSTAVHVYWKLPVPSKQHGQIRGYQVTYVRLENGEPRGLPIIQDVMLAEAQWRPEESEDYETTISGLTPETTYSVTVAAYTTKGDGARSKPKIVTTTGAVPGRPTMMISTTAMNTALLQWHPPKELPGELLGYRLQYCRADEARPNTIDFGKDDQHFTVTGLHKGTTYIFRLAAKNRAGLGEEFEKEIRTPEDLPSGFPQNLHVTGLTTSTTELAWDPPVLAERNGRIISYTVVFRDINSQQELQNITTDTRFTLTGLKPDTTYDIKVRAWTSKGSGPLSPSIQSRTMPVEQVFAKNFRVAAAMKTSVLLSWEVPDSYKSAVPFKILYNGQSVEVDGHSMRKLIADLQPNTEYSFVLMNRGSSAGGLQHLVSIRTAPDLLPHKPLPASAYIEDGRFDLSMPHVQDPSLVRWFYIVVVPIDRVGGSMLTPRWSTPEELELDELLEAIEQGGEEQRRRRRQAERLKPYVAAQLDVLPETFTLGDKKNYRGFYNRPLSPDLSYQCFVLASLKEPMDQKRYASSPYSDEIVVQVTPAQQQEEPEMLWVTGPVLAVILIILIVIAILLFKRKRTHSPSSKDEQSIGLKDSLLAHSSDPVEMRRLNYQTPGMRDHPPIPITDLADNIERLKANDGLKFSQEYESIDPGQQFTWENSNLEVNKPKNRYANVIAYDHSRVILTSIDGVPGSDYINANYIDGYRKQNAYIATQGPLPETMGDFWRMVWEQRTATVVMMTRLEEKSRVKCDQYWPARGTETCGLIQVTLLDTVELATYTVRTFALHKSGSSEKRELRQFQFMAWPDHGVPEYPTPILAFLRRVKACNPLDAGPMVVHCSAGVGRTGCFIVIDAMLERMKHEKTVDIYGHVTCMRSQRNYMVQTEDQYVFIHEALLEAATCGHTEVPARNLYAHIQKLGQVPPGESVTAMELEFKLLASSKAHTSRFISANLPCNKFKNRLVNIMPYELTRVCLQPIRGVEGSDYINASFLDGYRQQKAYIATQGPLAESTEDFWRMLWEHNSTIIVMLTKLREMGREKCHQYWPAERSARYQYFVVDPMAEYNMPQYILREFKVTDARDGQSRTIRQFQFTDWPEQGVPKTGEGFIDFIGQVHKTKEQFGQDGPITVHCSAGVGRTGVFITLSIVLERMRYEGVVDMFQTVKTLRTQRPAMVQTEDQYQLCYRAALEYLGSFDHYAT
From the text: as §1

[3] = molecular target: T2, Tyrosine-protein phosphatase non-receptor type 2 (Homo sapiens, UniProt P17706)
T2 sequence (P17706 whole entry): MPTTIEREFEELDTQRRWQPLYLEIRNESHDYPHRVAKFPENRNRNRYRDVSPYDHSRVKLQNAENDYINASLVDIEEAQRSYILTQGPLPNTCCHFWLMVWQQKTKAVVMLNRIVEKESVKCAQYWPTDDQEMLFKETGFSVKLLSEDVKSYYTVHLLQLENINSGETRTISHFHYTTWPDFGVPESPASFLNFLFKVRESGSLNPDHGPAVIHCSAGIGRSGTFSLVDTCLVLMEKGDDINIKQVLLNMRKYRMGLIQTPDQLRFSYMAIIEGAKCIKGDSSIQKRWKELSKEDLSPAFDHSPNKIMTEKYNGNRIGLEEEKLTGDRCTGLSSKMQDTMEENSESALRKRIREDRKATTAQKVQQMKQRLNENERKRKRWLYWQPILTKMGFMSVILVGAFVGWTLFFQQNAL
From the text: as §1

[4] = molecular target: Dual specificity protein phosphatase 3 (Homo sapiens, UniProt P51452)
Dual specificity protein phosphatase 3, sequence (P51452 whole entry): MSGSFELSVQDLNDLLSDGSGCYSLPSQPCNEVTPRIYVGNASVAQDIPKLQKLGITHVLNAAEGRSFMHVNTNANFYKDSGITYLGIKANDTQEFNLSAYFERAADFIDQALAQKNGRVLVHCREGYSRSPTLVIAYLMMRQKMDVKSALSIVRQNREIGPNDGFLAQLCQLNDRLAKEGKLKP
From the text: as §1

[5] = molecular target: T3, Low molecular weight protein-tyrosine phosphatase A (Mycobacterium tuberculosis (strain ATCC 25618 / H37Rv), UniProt P9WIA1)
T3 sequence (P9WIA1 whole entry): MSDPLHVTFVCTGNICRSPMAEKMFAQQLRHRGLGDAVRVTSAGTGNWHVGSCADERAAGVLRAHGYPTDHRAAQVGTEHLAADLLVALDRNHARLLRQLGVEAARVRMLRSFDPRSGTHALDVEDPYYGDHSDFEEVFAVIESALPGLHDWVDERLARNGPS
From the text: as §1

[6] = molecular target: T4, Receptor-type tyrosine-protein phosphatase C (Homo sapiens, UniProt P08575)
T4 sequence (P08575 whole entry): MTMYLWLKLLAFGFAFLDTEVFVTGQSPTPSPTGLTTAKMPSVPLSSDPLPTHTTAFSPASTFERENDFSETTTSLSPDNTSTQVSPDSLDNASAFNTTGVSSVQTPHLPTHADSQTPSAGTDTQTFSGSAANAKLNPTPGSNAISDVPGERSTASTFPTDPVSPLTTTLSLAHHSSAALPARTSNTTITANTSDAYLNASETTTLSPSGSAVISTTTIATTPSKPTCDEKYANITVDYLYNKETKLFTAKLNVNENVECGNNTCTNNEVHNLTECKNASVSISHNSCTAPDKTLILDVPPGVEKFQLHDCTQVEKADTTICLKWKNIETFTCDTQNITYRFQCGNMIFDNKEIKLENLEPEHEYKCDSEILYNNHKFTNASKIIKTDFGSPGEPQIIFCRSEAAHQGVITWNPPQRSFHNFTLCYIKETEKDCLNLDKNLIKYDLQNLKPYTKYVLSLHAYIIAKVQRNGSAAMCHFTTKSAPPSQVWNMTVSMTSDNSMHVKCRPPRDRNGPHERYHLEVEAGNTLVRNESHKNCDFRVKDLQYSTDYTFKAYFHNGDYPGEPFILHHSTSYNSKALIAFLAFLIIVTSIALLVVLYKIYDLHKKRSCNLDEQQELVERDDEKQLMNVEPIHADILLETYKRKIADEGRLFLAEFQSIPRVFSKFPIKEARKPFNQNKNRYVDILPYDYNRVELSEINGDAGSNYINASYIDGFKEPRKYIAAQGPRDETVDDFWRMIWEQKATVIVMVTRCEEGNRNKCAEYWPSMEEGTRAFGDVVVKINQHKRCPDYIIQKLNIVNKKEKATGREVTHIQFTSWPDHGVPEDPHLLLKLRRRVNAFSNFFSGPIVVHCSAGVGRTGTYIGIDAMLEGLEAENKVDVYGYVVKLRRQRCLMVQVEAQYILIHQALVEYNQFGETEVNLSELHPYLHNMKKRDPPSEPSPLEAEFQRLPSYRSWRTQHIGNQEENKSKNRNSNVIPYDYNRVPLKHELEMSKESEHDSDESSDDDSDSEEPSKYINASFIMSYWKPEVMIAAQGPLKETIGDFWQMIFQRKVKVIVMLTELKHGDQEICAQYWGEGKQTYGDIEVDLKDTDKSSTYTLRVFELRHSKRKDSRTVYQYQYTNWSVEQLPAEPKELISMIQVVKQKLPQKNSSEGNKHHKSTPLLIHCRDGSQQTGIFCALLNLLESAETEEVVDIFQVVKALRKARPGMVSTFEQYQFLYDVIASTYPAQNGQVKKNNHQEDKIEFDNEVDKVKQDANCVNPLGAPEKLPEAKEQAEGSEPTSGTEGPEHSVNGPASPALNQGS
From the text: as §1

SMILES: CC(C)c1cc(-c2cccc(C(F)(F)F)c2)ccc1-c1cc(C(=O)O)no1 [5-[2-(propan-2-yl)-4-[3-(trifluoromethyl)phenyl]phenyl]-1,2-oxazole-3-carboxylic acid]
- Ki [1]: 0.85 µM

SMILES: O=C(O)c1cc(-c2ccc(-c3ccc(F)c(C(F)(F)F)c3)cc2C2CCCCC2)on1 [5-{2-cyclohexyl-4-[4-fluoro-3-(trifluoromethyl)phenyl]phenyl}-1,2-oxazole-3-carboxylic acid]
- Ki [2]: 21.4 µM
- Ki [3]: > 50 µM
- Ki [4]: > 50 µM
- Ki [5]: > 50 µM
- Ki [6]: 7.7 µM

SMILES: O=C(O)c1cc(-c2ccc(-c3cccc(C(F)(F)F)c3)cc2)on1 [5-{4-[3-(trifluoromethyl)phenyl]phenyl}-1,2-oxazole-3-carboxylic acid]
- Ki [1]: 2.5 µM

SMILES: O=C1CC(c2ccc(-c3cccc(C(F)(F)F)c3)cc2)S(=O)(=O)N1 (centres undefined) [5-{4-[3-(trifluoromethyl)phenyl]phenyl}-1,2-thiazolidine-1,1,3-trione]
- Ki [1]: 8.8 µM

SMILES: CC(C)c1cc(-c2ccc(F)c(C(F)(F)F)c2)ccc1-c1cc(C(=O)O)no1 [5-{4-[4-fluoro-3-(trifluoromethyl)phenyl]-2-(propan-2-yl)phenyl}-1,2-oxazole-3-carboxylic acid]
- Ki [1]: 0.5 µM
